Experimental data reported in article PMC6010046, “Evaluation of polyphenols from Broussonetia papyrifera as coronavirus protease inhibitors” (Journal of Enzyme Inhibition and Medicinal Chemistry, 2017).
“Also recorded” adds a separate entry of the source. Read-outs that look alike come from different tables or passages of the source.

How the values were obtained:
[1] = target: MERS-CoV PL^pro (Middle East respiratory syndrome-related coronavirus, UniProt K9N7C7); experiment: biochemical
[2] = target: MERS-CoV 3CL^pro (Middle East respiratory syndrome-related coronavirus, UniProt K9N7C7); experiment: biochemical
Chain of MERS-CoV 3CL^pro (K9N7C7 3247-3553 limits assumed): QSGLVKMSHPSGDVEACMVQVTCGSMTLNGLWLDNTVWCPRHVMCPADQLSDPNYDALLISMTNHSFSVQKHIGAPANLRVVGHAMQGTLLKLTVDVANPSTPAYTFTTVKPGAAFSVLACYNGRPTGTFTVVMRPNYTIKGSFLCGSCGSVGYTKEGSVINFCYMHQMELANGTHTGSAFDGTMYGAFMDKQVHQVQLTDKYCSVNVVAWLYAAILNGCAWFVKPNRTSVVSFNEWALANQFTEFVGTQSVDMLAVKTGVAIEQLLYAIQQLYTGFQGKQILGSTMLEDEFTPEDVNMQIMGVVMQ

[3] = target: T1, SARS-CoV PL^pro (Severe acute respiratory syndrome coronavirus, UniProt P0C6X7); format: biochemical
[4] = target: T1, SARS-CoV PL^pro; experiment: biochemical; format: binding; conditions: for kon: read-out: association rate constant ka; for koff: read-out: dissociation rate constant kd
[5] = target: SARS-CoV 3CL^pro (Severe acute respiratory syndrome coronavirus, UniProt P0C6X7); experiment: biochemical

Chain of MERS-CoV PL^pro (K9N7C7 1436-1803 limits assumed): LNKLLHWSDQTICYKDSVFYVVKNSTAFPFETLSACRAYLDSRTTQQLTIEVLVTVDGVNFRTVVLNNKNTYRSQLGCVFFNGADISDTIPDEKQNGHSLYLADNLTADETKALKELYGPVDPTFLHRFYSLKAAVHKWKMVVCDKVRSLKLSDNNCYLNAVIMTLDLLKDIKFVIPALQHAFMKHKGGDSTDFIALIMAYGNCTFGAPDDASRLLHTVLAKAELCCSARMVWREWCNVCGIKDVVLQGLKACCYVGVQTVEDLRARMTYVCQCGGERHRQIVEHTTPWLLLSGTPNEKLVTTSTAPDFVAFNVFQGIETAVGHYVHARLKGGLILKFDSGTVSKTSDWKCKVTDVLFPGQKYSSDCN

Row | Structure (SMILES) | IC50 [1] [µM] | IC50 [2] [µM] | SARS-CoV PL^pro, LRLRGG-AMC, Inhibition type [3] | Kd [4] [µM] | kon [4] [M⁻¹ s⁻¹] | koff [4] [s⁻¹] | IC50 [5] [µM] | melting point [°C] | IC50 ([1]; pH 5.5, read-out: MERS-CoV PL^pro, IC50) [µM] | IC50 ([2]; pH 6, read-out: MERS-CoV 3CL^pro, IC50) [µM]
1 | CC(C)=CCc1cc(C(=O)/C=C/c2ccc(O)cc2)c(O)cc1O [Compound 1, broussochalcone B] | 113 ± 10.1 | 27.9 ± 1.2 | Noncompetitive (6.6 ± 0.5) | 74 | 56 | 0.00412 | 57.8 ± 0.5 | – | – | –
2 | CC(C)=CCc1cc(C(=O)/C=C/c2ccc(O)c(O)c2)c(O)cc1O [Compound 2, broussochalcone A] | 42.1 ± 5 | 36.2 ± 0.4 | noncompetitive inhibition; also recorded: Noncompetitive (8.0 ± 0.4) | 130 | 29.9 | 0.00388 | 88.1 ± 13 | – | – | –
3 | CC1(C)C=Cc2cc(C(=O)/C=C/c3ccc(O)cc3)c(O)cc2O1 [Compound 3, 4-hydroxyisolonchocarpin] | 172 ± 10.2 | 194 ± 15.6 | Noncompetitive (27.7 ± 1.7) | – | – | – | 203 ± 3.9 | – | – | –
4 | CC(C)=CCc1cc(-c2oc3cc(O)c(CC=C(C)C)c(O)c3c(=O)c2O)cc(O)c1O [Compound 4, papyriflavonol A] | 113 ± 7.3 | 64.5 ± 4.9 | noncompetitive inhibition; also recorded: Noncompetitive (5.9 ± 0.4) | 212 | 21 | 0.00445 | 104 ± 17.4 | 202 to 204 | – | –
5 | CC(C)=CCc1cc(C2CCc3ccc(O)cc3O2)cc(O)c1O (stereo not drawn) [Compound 5, 3′-(3-methylbut-2-enyl)-3′,4′,7-trihydroxyflavane] | 48.8 ± 6.6 | 34.7 ± 2 | Noncompetitive (15.9 ± 0.8) | – | – | – | 30.2 ± 6.8 | – | – | –
6 | CC(C)=CCc1cc([C@@H]2CCc3ccc(O)cc3O2)c(CC=C(C)C)c(O)c1O [Compound 6, kazinol A] | 88.5 ± 3.9 | – | Noncompetitive (40.5 ± 3.4) | – | – | – | 84.8 ± 10.4 | – | – | –
7 | CC(C)=CCc1c([C@@H]2CCc3ccc(O)cc3O2)cc2c(c1O)OC(C)(C)C=C2 [Compound 7, kazinol B] | 94.9 ± 13.1 | – | Noncompetitive (36.7 ± 2.7) | – | – | – | 233 ± 6.7 | – | – | –
8 | CC(C)=CCc1c([C@@H]2CCc3ccc(O)cc3O2)cc2c(c1O)OC(C)(C)C(O)C2O (stereo partly drawn) [Compound 8, broussoflavan A] | 49.1 ± 7.5 | 126 ± 17.4 | Noncompetitive (23.4 ± 1.6) | – | – | – | 92.4 ± 2.1 | 238 to 240 | – | –
9 | CC(C)=CCc1c(CCCc2ccc(O)cc2O)cc(O)c(O)c1CC=C(C)C [Compound 9, kazinol F] | 39.5 ± 5.1 | 135 ± 5.1 | Noncompetitive (12.1 ± 0.7) | – | – | – | 43.3 ± 10.4 | – | – | –
10 | COc1cc(O)ccc1CCCc1cc(O)c(O)c(CC=C(C)C)c1CC=C(C)C [Compound 10, kazinol J] | 55 ± 1.3 | 109 ± 3.7 | Noncompetitive (10.7 ± 0.9) | 804 | 7.3 | 0.00591 | 64.2 ± 1.7 | – | – | –
11 | O=C(/C=C/c1ccc(O)cc1)c1ccc(O)cc1O [Isoliquiritigenin, isoliquiritigenin, reference compound] | – | – | Noncompetitive (23.0 ± 0.9) | – | – | – | 61.9 ± 11 | – | – | –
12 | O=c1c(O)c(-c2ccc(O)cc2)oc2cc(O)cc(O)c12 [Kaempferol, kaempferol, reference compound] | 206.6 ± 1.7 | 35.3 ± 5.3 | Noncompetitive (13.7 ± 0.8) | – | – | – | 116 ± 7.1 | – | – | –
13 | O=c1c(O)c(-c2ccc(O)c(O)c2)oc2cc(O)cc(O)c12 [Quercetin, quercetin, reference compound] | – | 34.8 ± 1.2 | Noncompetitive (7.0 ± 0.7) | – | – | – | – | – | – | –
14 | O=c1c(O[C@@H]2O[C@H](CO)[C@H](O)[C@H](O)[C@H]2O)c(-c2ccc(O)c(O)c2)oc2cc(O)cc(O)c12 [Quercetin-β-galactoside, quercetin-β-galactoside, reference compound] | – | – | Noncompetitive (56.1 ± 2.5) | – | – | – | – | – | 129 ± 14.5 | 68 ± 2.4
